Tested on: Wistar rats
Experiment: Choleretic activity in the rat, bile fistula method
Assay type: in vivo
Conditions: for R.S. (dry residue): pooled bile; for ml of bile flow ± s.e.: second series
Excerpt: It is known that the primary effect of a choleretic agent is to increase the bile flow and the quantity of solid substances excreted with the bile. A good choleretic must provide this effect in a sufficiently intense and prolonged manner. In addition, as in the case of all drugs, it must have low acute toxicity and good general tolerability, but in particular must be free from toxic effects on the organ on which it is required to act, i.e. the liver, whether this is in a normal or pathological state. The analysis of the new product in comparison with the best known products for the same therapeutic use has therefore been focused on these aspects. The choleretic activity of the new product has been determined in the rat by using the bile fistula method. Wistar rats of both sexes and having a weight of between 180 and 240 g were used.
The animals, which were kept fasting for 12 hours but with free access to water, were narcotised by ethyl urethane in a dose of 1 g/kg by intra peritoneal or intramuscular injection.
After binding the animals to the retention bed, a median laparatomy was carried out, and when the bile duct had been isolated a cannula needle was inserted into it. A polythene tube was then inserted into those ani mals which were to receive the products intraduodenally, after which a su ture was carried out on the abdominal wall, and the bile was allowed to discharge for 30 minutes after inserting the cannula in the bile duct, so as to allow the discharge to become normal. The bile was then collec ted for one hour.
Having determined the volume of bile discharged during this first hour of collection (base volume), the products under examination were administered at the predetermined doses and by the predetermined methods. The bile excreted by the individual animals was then collected over each hour for a further six hours.
During the experiments, the animals were kept at ambient temperature of about 22°C, and at regular intervals of two hours received 10 ml/kg of physiological solution s.c.
The liquids were administered at a temperature of 37°C.
The bile flow and cholesterol excretion were determined on those bile fractions excreted by the animals over each hour starting from the base hour until the end of the experiment
The dry residue (R.So) was determined on the bile fraction excreted during the base hour and on the total bile fractions excreted during the sub sequent hours. For practical reasons, the determination of the dry residue and of the cholesterol (carried out by the Sperry & Webb method) were carried out on the pool of bile excreted by the entire group of animals subjected to the same treatment instead of on the bile fractions excreted by the individual animals (which was sometimes insufficient for determining the cholesterol).
In compiling the graphs, the differences between the choleresis in the treated animals and that in the controls was calculated over the considered time intervals, and expressed as a percentage of the base choleresis. For this calculation, the following formula was used: [formula] where Cn and C' represent the choleresis (in ml/kg/h for the bile flow, and in mg/kg/h for the dry residue) determined over the considered time interval for the group of treated animals and the group of controls respectively. Cb and C'b represent the base choleresis in the group of treated animals and group of controls respectively.
This index was calculated as the time for halving the maximum choleresis increase recorded under their effect.

With `C[C@H](CCC(=O)O)[C@H]1CC[C@H]2[C@@H]3C(=O)C[C@@H]4CC(=O)CC[C@]4(C)[C@H]3CC(=O)[C@]12C` [Dehydrocholic acid, dehydrocholic acid] the Flow (25 mg/kg p.o., 0 (base hour)) was 2,46±0,05 ml/kg/h, the “R.S. (dry residue)” value (25 mg/kg p.o., 0 (base hour)) was 59,8 mg/kg/h and the Flow (25 mg/kg p.o., 1h) was 3,33±0,14 ml/kg/h. For the same compound, the “R.S. (dry residue)” value (25 mg/kg p.o., 1h) was 84,1 mg/kg/h, the Flow (25 mg/kg p.o., 2h) was 1,88±0,14 ml/kg/h and the Flow (25 mg/kg p.o., 3h) was 2,19±0,15 ml/kg/h. The Flow (25 mg/kg p.o., 4h) was 1,92±0,17 ml/kg/h, the Flow (25 mg/kg p.o., 5h) was 1,77±0,16 ml/kg/h and the Flow (25 mg/kg p.o., 6h) was 1,29±0,15 ml/kg/h. The “R.S. (dry residue)” value (25 mg/kg p.o., subsequent hours 2h-6h) was 41,0 mg/kg/h, the Flow (50 mg/kg i.d., 0 (base hour)) was 2,31±0,15 ml/kg/h and the “R.S. (dry residue)” value (50 mg/kg i.d., 0 (base hour)) was 61,9 mg/kg/h. The Flow (50 mg/kg i.d., 1 h) was 3,82±0,26 ml/kg/h, the “R.S. (dry residue)” value (50 mg/kg i.d., 1 h) was 98,5 mg/kg/h and the Flow (50 mg/kg i.d., 2 h) was 2,51±0,17 ml/kg/h. For the same compound, the Flow (50 mg/kg i.d., 3 h) was 2,63±0,19 ml/kg/h, the Flow (50 mg/kg i.d., 4 h) was 1,93±0,12 ml/kg/h and the Flow (50 mg/kg i.d., 5 h) was 1,87±0,13 ml/kg/h. The Flow (50 mg/kg i.d., 6 h) was 1,45±0,14 ml/kg/h, the “R.S. (dry residue)” value (50 mg/kg i.d., subsequent hours 2h-6h (printed under 4 h)) was 44,5 mg/kg/h and the Flow (100 mg/kg i.d., 0 (base hour)) was 1,80±0,09 ml/kg/h. The “R.S. (dry residue)” value (100 mg/kg i.d., 0 (base hour)) was 52,3 mg/kg/h, the Flow (100 mg/kg i.d., 1 h) was 4,59±0,24 ml/kg/h and the “R.S. (dry residue)” value (100 mg/kg i.d., 1 h) was 147,0 mg/kg/h. For the same compound, the Flow (100 mg/kg i.d., 2 h) was 2,45±0,10 ml/kg/h, the Flow (100 mg/kg i.d., 3 h) was 1,98±0,09 ml/kg/h and the Flow (100 mg/kg i.d., 4 h) was 1,82±0,09 ml/kg/h. For the same compound, the Flow (100 mg/kg i.d., 5 h) was 1,82+0,08 ml/kg/h, the Flow (100 mg/kg i.d., 6 h) was 1,55±0,08 ml/kg/h and the “R.S. (dry residue)” value (100 mg/kg i.d., subsequent hours 2h-6h (printed under 4 h)) was 49,9 mg/kg/h. For the same compound, the Flow (100 mg/kg p.o., 0 (base hour)) was 2,23±0,22 ml/kg/h, the “R.S. (dry residue)” value (100 mg/kg p.o., 0 (base hour)) was 55,4 mg/kg/h and the Flow (100 mg/kg p.o., 1h) was 3,75±0,75 ml/kg/h. The “R.S. (dry residue)” value (100 mg/kg p.o., 1h) was 98,6 mg/kg/h, the Flow (100 mg/kg p.o., 2h) was 2,60±0,24 ml/kg/h and the Flow (100 mg/kg p.o., 3h) was 2,15±0,28 ml/kg/h. For the same compound, the Flow (100 mg/kg p.o., 4h) was 2,10±0,24 ml/kg/h, the Flow (100 mg/kg p.o., 5h) was 1,64±0,20 ml/kg/h and the Flow (100 mg/kg p.o., 6h) was 1,64±0,24 ml/kg/h. For the same compound, the “R.S. (dry residue)” value (100 mg/kg p.o., subsequent hours 2h-6h) was 45,5 mg/kg/h, the Flow (200 mg/kg i.d., 0 (base hour)) was 2,28±0,09 ml/kg/h and the “R.S. (dry residue)” value (200 mg/kg i.d., 0 (base hour)) was 71,0 mg/kg/h. The Flow (200 mg/kg i.d., 1 h) was 8,10±0,38 ml/kg/h, the “R.S. (dry residue)” value (200 mg/kg i.d., 1 h) was 255,0 mg/kg/h and the Flow (200 mg/kg i.d., 2 h) was 3,76±0,10 ml/kg/h. For the same compound, the Flow (200 mg/kg i.d., 3 h) was 2,69±0,07 ml/kg/h, the Flow (200 mg/kg i.d., 4 h) was 2,77±0,13 ml/kg/h and the Flow (200 mg/kg i.d., 5 h) was 2,34±0,11 ml/kg/h. For the same compound, the Flow (200 mg/kg i.d., 6 h) was 2,16±0,08 ml/kg/h, the “R.S. (dry residue)” value (200 mg/kg i.d., subsequent hours 2h-6h (printed under 4 h)) was 67,0 mg/kg/h and the “Peak choleresis time of appearance” value (200 mg/kg p.o. (dose given for 1620 only)) was 1st hour. For the same compound, the “Peak choleresis % increase” value (200 mg/kg p.o. (dose given for 1620 only), increase over controls as percentage of base choleresis) was 94%, the Duration index (200 mg/kg p.o. (dose given for 1620 only), time for halving the maximum choleresis increase) was 45' and the Flow (200 mg/kg p.o., 0 (base hour)) was 2,75±0,17 ml/kg/h. The “R.S. (dry residue)” value (200 mg/kg p.o., 0 (base hour)) was 85,8 mg/kg/h, the Flow (200 mg/kg p.o., 1h) was 5,39±0,24 ml/kg/h and the “R.S. (dry residue)” value (200 mg/kg p.o., 1h) was 171,9 mg/kg/h. For the same compound, the Flow (200 mg/kg p.o., 2h) was 3,50±0,13 ml/kg/h, the Flow (200 mg/kg p.o., 3h) was 2,64±0,19 ml/kg/h and the Flow (200 mg/kg p.o., 4h) was 2,78±0,18 ml/kg/h. The Flow (200 mg/kg p.o., 5h) was 2,61±0,13 ml/kg/h, the Flow (200 mg/kg p.o., 6h) was 2,38±0,14 ml/kg/h and the “R.S. (dry residue)” value (200 mg/kg p.o., subsequent hours 2h-6h) was 74,9 mg/kg/h. For the same compound, the Flow (400 mg/kg p.o., 0 (base hour)) was 2,53±0,10 ml/kg/h, the “R.S. (dry residue)” value (400 mg/kg p.o., 0 (base hour)) was 71,8 mg/kg/h and the Flow (400 mg/kg p.o., 1h) was 7,68±0,20 ml/kg/h. For the same compound, the “R.S. (dry residue)” value (400 mg/kg p.o., 1h) was 238,6 mg/kg/h, the Flow (400 mg/kg p.o., 2h) was 4,70±0,45 ml/kg/h and the Flow (400 mg/kg p.o., 3h) was 3,06±0,15 ml/kg/h. For the same compound, the Flow (400 mg/kg p.o., 4h) was 2,59±0,16 ml/kg/h, the Flow (400 mg/kg p.o., 5h) was 2,29±0,12 ml/kg/h and the Flow (400 mg/kg p.o., 6h) was 1,97±0,15 ml/kg/h. The “R.S. (dry residue)” value (400 mg/kg p.o., subsequent hours 2h-6h) was 77,8 mg/kg/h, the “ml of bile flow ± s.e.” value (oral by gastric probe 25 mg/kg, 0 (base values)) was 2,4±0,21 ml and the “ml of bile flow ± s.e.” value (oral by gastric probe 25 mg/kg, 1 h) was 3,0±0,25 ml. For the same compound, the “ml of bile flow ± s.e.” value (oral by gastric probe 25 mg/kg, 2 h) was 2,0±0,12 ml, the “ml of bile flow ± s.e.” value (oral by gastric probe 25 mg/kg, 3 h) was 1,9±0,11 ml and the “ml of bile flow ± s.e.” value (oral by gastric probe 25 mg/kg, 4 h) was 1,7±0,13 ml. The “ml of bile flow ± s.e.” value (oral by gastric probe 25 mg/kg, 5 h) was 1,7±0,10 ml, the “ml of bile flow ± s.e.” value (oral by gastric probe 25 mg/kg, 6 h) was 1,4±0,11 ml and the “ml of bile flow ± s.e.” value (oral by gastric probe 50 mg/kg, 0 (base values)) was 2,5±0,16 ml. The “ml of bile flow ± s.e.” value (oral by gastric probe 50 mg/kg, 1 h) was 3,9±0,18 ml, the “ml of bile flow ± s.e.” value (oral by gastric probe 50 mg/kg, 2 h) was 2,1±0,16 ml and the “ml of bile flow ± s.e.” value (oral by gastric probe 50 mg/kg, 3 h) was 1,9±0,14 ml. The “ml of bile flow ± s.e.” value (oral by gastric probe 50 mg/kg, 4 h) was 1,8±0,17 ml, the “ml of bile flow ± s.e.” value (oral by gastric probe 50 mg/kg, 5 h) was 1,7±0,11 ml and the “ml of bile flow ± s.e.” value (oral by gastric probe 50 mg/kg, 6 h) was 1,5±0,13 ml.

From EP0012729A1, “Therapeutic compositions containing as active compound a substituted acetic acid or its salt” ("IBIS" ISTITUTO BIOCHIMICO SPERIMENTALE S.p.A., priority 1978, dated 1980)
